Where two headings read alike, the source gives them in different places.
How the values were obtained:
MES seizure = test: maximal electroshock (MES) seizure test; assay type: in vivo, mice; settings: for TI (therapeutic index): ratio TD50 (rotorod)/ED50 (MES); for TI (therapeutic index) / anticonvulsant activity: mice; for anticonvulsant activity / LogED50: MES test; for anticonvulsant activity: intraperitoneal; for LogED50: best-fit value, C5 vs C7 comparison
Protocol: (§1) Male CF-1 mice, weighing 28-30 g, were used as subjects (Charles River Canada, La Prairie, Quebec, Canada). Three to five subjects per drug dose were used to prescreen each compound for anticonvulsant activity. Prescreening involved injecting subjects with the drug at doses of 3, 6 mmol/kg and assessing activity and toxicity 30 min later. Promising compounds progressed to dose-response studies, which employed at least 50 subjects, 10 subjects per dose.
(§2) Compounds were dissolved in oil and injected intraperitoneally.
Thirty minutes after drug injection, the MES seizure test was administered. We used the procedure of Krall et al. (1978). In brief, a seizure was induced using the electrical current applied via corneal electrodes. The current was set to 50 mA with a 60 Hz sine wave pulse configuration and train duration of 0.2 sec. Seizure protection was defined in this model as a failure to extend the hind limbs to an angle greater than 90 degrees during the tonic period of the convulsion.
Data analysis was performed using GraphPad Prizm software package version 3.02 for Windows (GraphPad Software Inc, San Diego, Calif., USA). Both dose-response and toxicity data were fitted using non-linear sigmoidal dose-response model with variable slope: Y=Bottom+(Top-Bottom)/(1+10^((LogED50—X)*HillSlope)), where Bottom, Top, HillSlope and ED50 were the fitting parameters, X was the logarithm of drug concentration, and Y was the response parameter. ED50 and TD50, which are the concentrations that give a response in 50% subjects in seizure and toxicity tests, were determined as best-fit values. Therapeutic index (TI) was calculated as a ratio of TD50/ED50.

[1] = test system: neurological deficit (rotorod); test: rotorod toxicity test; assay type: in vivo; settings: dose giving rotorod failure in 50% subjects, about 25 min after intraperitoneal injection in oil, male CF-1 mice
Protocol: as §1, §2
The test was administered about 25 minutes after the injection. In brief, the diameter of a rotating rod was about 5 cm and the number of revolutions per minute was set at 6 rpm. Mice were placed on the rod so that it was rotated toward the animal. Animals that were not able to maintain their equilibrium on the rod for 1 min were again put on the rod a further two times.
Both dose-response and toxicity data were fitted using non-linear sigmoidal dose-response model with variable slope: Y=Bottom+(Top-Bottom)/(1+10^((LogED50—X)*HillSlope)), where Bottom, Top, HillSlope and ED50 were the fitting parameters, X was the logarithm of drug concentration, and Y was the response parameter. […] Therapeutic index (TI) was calculated as a ratio of TD50/ED50.

[2] = biological target: nicotinic acetylcholine receptors; settings: inhibition of acetylcholine ion channel, Alifimoff et al. (1993); cited from earlier work
[3] = test system: thujone model of epileptic seizures; settings: cited from earlier work
[4] = test system: maximal electroshock (MES) model; test: maximal electroshock (MES) model, acetone (FIG. 3); assay type: in vivo
Description: (§3) The amygdala-kindled focus is a model of complex partial seizures in humans (Albright & Burnham 1980). These are notoriously drug resistant.
(§4) The AY-9944-induced seizures were quantified by measurement of the onset-to-offset durations of the slow spike-and-wave discharge (SWD) combined over the 20-min intervals. In the AY-9944 model, average ‘% SWD decrease’ was the response parameter.
(§5) Compounds may be examined for their efficacy as anticonvulsants using a number of different animal models, including the maximal electroshock (MES) model (human analog: tonic-clonic seizures) as described in Krall et al. (1978) and in Example 1 herein, the threshold pentylenetetrazole (PTZ) model (human analog: absence seizures) as described in Krall et al. (1978), the amygdala-kindling model (human analog: complex partial seizures with secondary generalization) as described in Albright & Burnham (1980), and the AY-9944 model (human analog, a typical absence, a component of the Lennox-Gastaut syndrome) as described in Cortez et al. (2001). The compounds may also be tested for their toxicity using standard assays, such as the standard rotorod assay as described in Dunham & Miya (1957) and Wlaz & Loscher (1998) and in Example 1 herein.

[5] = test system: threshold pentylenetetrazole (PTZ) model; test: threshold pentylenetetrazole (PTZ) model, acetone (FIG. 3); assay type: in vivo
Description: as §3, §4, §5

[6] = test system: amygdala-kindled seizures; test: amygdala-kindling model, acetone (FIG. 3)
Description: as §3, §4, §5

AY-9944-induced seizures = test: AY-9944 model, acetone (FIG. 3); assay type: in vivo
Description: as §3, §4, §5

seizures = test: anticonvulsant action of the ketone bodies; settings: in vivo
Description: The present inventors have studied the mechanism of action of the ketogenic diet in a series of animal experiments.

[7] = test system: convulsions induced by isonicotinic acid; settings: pretreatment, rats; cited from earlier work
[8] = test system: convulsions induced by electroshock; settings: pretreatment, rats; cited from earlier work
[9] = test system: semicarbizide-induced convulsions; settings: given orally to mice; cited from earlier work
[10] = test system: electrically evoked seizure; settings: exposed for 4 h to air containing acetone vapors; cited from earlier work
[11] = test system: pentylenetetrazole seizures; test: pentylenetetrazole seizures after intraperitoneal acetoacetate; assay type: in vivo; settings: 15-30 min after intraperitoneal injection, mice or rats
Description: (§6) Experiments of Keith and Helmholz involving the thujone model of epileptic seizures seemed to support Wilder's hypothesis (Helmholz & Keith 1930, Keith 1931, 1932a,b). […] The Keith's results and conclusions about anticonvulsant activity of acetoacetate are debatable. […] At the same time, acetoacetate easily decomposes to form acetone.

[12] = test system: maximal electroshock seizures; test: maximal electroshock seizures after intraperitoneal acetoacetate; assay type: in vivo; settings: 15-30 min after intraperitoneal injection, mice or rats
Description: as §6

[13] = Mus musculus, ip, 0.5 h, dose giving seizure protection in 50% subjects, MES test 30 min after intraperitoneal injection in oil, male CF-1 mice, read-out: ED50
[14] = mouse, in vivo, ip, read-out: TD50
[15] = dose giving seizure protection in 50% subjects, MES test 30 min after intraperitoneal injection in oil, male CF-1 mice
[16] = given chronically for 28 days, rats

Compound	ED50 (MES seizure; [13])	TI (therapeutic index) (MES seizure)	TD50 [1, 14]	also measured
CCCC(CCC)C(=O)O [valproate]	1400 µmol/kg	2.7	3800 µmol/kg	
CCC(C)O (centres unmarked) [2-butanol]				IC50 [2]: 60 to 70 mM
COCC(C)=O [Methoxyacetone]				anticonvulsant activity (MES seizure): absence of anticonvulsant activity
CC(=O)CC(=O)[O-].[Na+] [sodium acetoacetate]				anticonvulsant effect [3]: most marked anticonvulsant effects
CCCCCC(=O)CCC [4-Nonanone]	5000 µmol/kg	3.3	16300 µmol/kg	
CC(O)CCCO (centres unmarked) [1,4-Pentanediol]				anticonvulsant activity (MES seizure): absence of anticonvulsant activity
CCCCCCC(C)O (centres unmarked) [2-Octanol]	2000 µmol/kg	1.9	3900 µmol/kg	
CCOC(=O)CC(C)=O [Ethyl acetoacetate]				anticonvulsant activity (MES seizure): absence of anticonvulsant activity
CCC(=O)CC [3-Pentanone]	3300 µmol/kg	2.3	7600 µmol/kg	LogED50 (MES seizure): LogED50 = 0.5124
CCCC(=O)CCC [4-Heptanone]	2000 µmol/kg	2.4	4700 µmol/kg	LogED50 (MES seizure): LogED50 = 0.2981
CCCC(C)O (centres unmarked) [2-Pentanol]	1600 µmol/kg	3.7	5700 µmol/kg	LogED50 (MES seizure): LogED50 = 0.2331
CCCCCCCCC [Nonane]				anticonvulsant activity (MES seizure): inactive as anticonvulsant
Acetone				ED50 (MES seizure; [15]): 16200 µmol/kg; ED50 (MES seizure; dose giving seizure protection in 50% subjects, MES test 30 min after intraperitoneal injection in oil, male CF-1 mice, listed as acetone): 16000 µmol/kg; TD50 [1]: 35200 µmol/kg; seizure suppression [4]: suppresses seizures; seizure suppression [5]: suppresses seizures; seizure suppression ([6]; amygdala-kindling model): suppresses seizures; development of kindled seizures [6, 16]: significantly delayed; tolerability [6, 16]: well tolerated; effect against the kindled amygdala focus ([6]; sub-toxic doses): effective; seizure suppression (AY-9944-induced seizures): suppresses seizures; anticonvulsant (seizures): anticonvulsant; protection against clonic-tonic convulsions [7]: protected; protection against clonic-tonic convulsions [8]: protected; semicarbizide-induced convulsions and mortality [9]: reduce; rats in which electrically evoked seizure is inhibited [10]: 50%
CCCCC(=O)CCCC [5-Nonanone]	3600 µmol/kg	3.6	13200 µmol/kg	
CCCCCCCCC=O [Nonanal]				anticonvulsant activity (MES seizure): inactive as anticonvulsants
CCCCCC(=O)CCCCC [6-Undecanone]		Not Active		ED50 (MES seizure; [15]): Not Active; TD50 [1]: Not Active
CC(O)CC(=O)O (stereo not drawn) [Beta-hydroxybutyrate, beta-hydroxybutyrate]				anticonvulsant effect [3]: not anticonvulsant

Compound	ED50 (MES seizure; [13])	TI (therapeutic index) (MES seizure)	TD50 [1, 14]	also measured
CCCCCCCCC(C)=O [2-Decanone]		Not Active		ED50 (MES seizure; [15]): Not Active; TD50 [1]: Not Actuve
CCCCC(C)=O [2-Hexanone]		1.8	4400 µmol/kg	ED50 (MES seizure; Mus musculus, ip, 0.5 h): 2400 µmol/kg
CCCCOC(C)=O [Butyl acetate]				anticonvulsant activity (MES seizure): Series V - Inactive analogues
CCCC(C)=O [2-Pentanone]		2.2	7200 µmol/kg	LogED50 (MES seizure): LogED50 = 0.5176; ED50 (MES seizure; Mus musculus, ip, 0.5 h): 3300 µmol/kg
CCCCCCCC(C)=O [2-Nonanone]	1700 µmol/kg	9.4	15900 µmol/kg	
CC(=O)CC(=O)O [Acetoacetate]				effect against pentylenetetrazole seizures [11]: not effective; effect against maximal electroshock seizures [12]: not effective
CCCCCCC(=O)CC [3-Nonanone]	9600 µmol/kg	2.2	20900 µmol/kg	
CCCCCCCC(C)O (centres unmarked) [2-Nonanol]	1200 µmol/kg	4.3	5000 µmol/kg	
2-Butanone		1.7		ED50 (MES seizure; [15]): 5800 µmol/kg; TD50 [1]: 10000 µmol/kg
CCCCCCC(C)=O [2-Octanone]	3400 µmol/kg	1.8	6000 µmol/kg	
CCCCCC(C)O (centres unmarked) [2-Heptanol]	1300 µmol/kg	3.9	5100 µmol/kg	LogED50 (MES seizure): LogED50 = 0.1197
CCCCCCCCC(C)O (centres unmarked) [2-Decanol]		Not Active		ED50 (MES seizure; [15]): Not Active; TD50 [1]: Not Active
CCCCCC(C)=O [2-Heptanone]	2800 µmol/kg	2.2	6000 µmol/kg	LogED50 (MES seizure): LogED50 = 0.4447
CCCCCCCCCC(C)=O [2-Undecanone]		Not Active		ED50 (MES seizure; [15]): Not Active; TD50 [1]: Not Active
CC(=O)CC(C)(C)O [Diacetone]				anticonvulsant activity (MES seizure; listed as diacetone alcohol): absence of anticonvulsant activity
CC(=O)CC(=O)O [acetoacetic acid]				anticonvulsant effect [3]: most marked anticonvulsant effects
CCCCCC=O [Hexanal]				anticonvulsant activity (MES seizure): inactive as anticonvulsants
